Measurements: patent US8614203B2, “Methods for the treatment of a central nervous system injury via a tapered administration protocol” (Emory University, priority 2005, dated 2013)

Experiments:
HSP70 [1] = test: Example 4: Western blotting densitometry, HSP70; type: in vivo, Sprague-Dawley rats
Excerpt: (§1) 60 male Sprague-Dawley rats weighing 290-310 g at the time of injury were used in this experiment. Food and water were provided ad libidum before and after surgery. Animals were handled and weighed daily from their arrival, seven days pre-surgery, to brain extraction three weeks post-surgery. Animals were handled in squads of 12, with n=10 per experimental condition. All animal procedures were approved by the Emory University Animal Care and Use Committee, Protocol #131-2002.
(§2) Isofluorane anesthesia was induced for four minutes and 45 seconds at 5% and maintained at 2.5%. Normal body temperature was maintained with a surgical heating pad placed beneath the sterile dressings. The scalp incision area was shaved and sterilized with iodine and isopropanol. A midline incision was made along the scalp and the fascia cleared to expose the surface of the skull. Medial, lateral, and dorsal stereotaxic coordinates were determined at bregma, and a 5-7 mm diameter bilateral craniotomy was performed mid-sagitally, 3 mm anterior to bregma. […] Sutures were used to close the incision after bleeding ceased. Animals were placed in individual heated, clean recovery cages until they awakened, and were returned to clean individual home cages with accessible moistened food pellets. Sham animals were anesthetized, and an incision was made at the top of the head. The fascia was cleared to expose bregma, then the incision was sutured closed. Sham surgeries were matched to lesion surgeries for all experimental conditions.
Sham (S) and lesion (L) animals were randomly assigned to one of three treatment groups: vehicle (VS, VL), acute withdrawal (AWS, AWL), and tapered withdrawal (TWS, TWL). […] Tapering was induced as halved dosages over the last two days of treatment. Dilutions for TW treatments were made with HBC stock. […]
(§3) Brains for protein analysis were sectioned into the immediate area of the lesion and snap frozen in 2-methyl-butane chilled on dry ice. […] The amount of brain homogenate needed to standardize samples to 2 μg/μL for Western blotting was calculated from the results of these assays. […]

HSP70 [2] = test: Example 3: Western blot of brain tissue, HSP70; type: in vivo, Sprague-Dawley rats; settings: TWI vs AWI vs VI, 3 weeks post-injury
Experimental: (§4) Male Sprague-Dawley rats received either medial frontal cortex injury or sham surgery. Injections were given 1 and 6 hours post-injury, and every 24 hours for 7 days. Treatment groups (n=8) encompassed injured (I) and sham (S) acute withdrawal (AW), tapered withdrawal (TW) and vehicle (V) treatments. TW injections were progressively halved over the final two treatments. Behavioral testing was conducted post-surgery, mid- and post-withdrawal. Activity boxes were used to investigate vertical movements and exploration: Sensory neglect and anxiety behaviors were also analyzed. Brain harvesting was performed at 8 days or 3 weeks post-injury. Perfused tissue sections were analyzed for lesion volume and immunohistochemical response. Fresh brain tissue was flash frozen in chilled 2-methyl butane, and then homogenized for Western blot analysis.

BBB = settings: in vitro (Betz et al. 1990); cited from earlier work
p53 = test: Example 4: Western blotting densitometry, p53; type: in vivo, Sprague-Dawley rats; settings: all progesterone-treated animals (AW and TW); two weeks post-withdrawal
Excerpt: as §1
Isofluorane anesthesia was induced for four minutes and 45 seconds at 5% and maintained at 2.5%. Normal body temperature was maintained with a surgical heating pad placed beneath the sterile dressings. The scalp incision area was shaved and sterilized with iodine and isopropanol. A midline incision was made along the scalp and the fascia cleared to expose the surface of the skull. Medial, lateral, and dorsal stereotaxic coordinates were determined at bregma, and a 5-7 mm diameter bilateral craniotomy was performed mid-sagitally, 3 mm anterior to bregma. […] Sutures were used to close the incision after bleeding ceased. […]
as §3

BDNF = test: Example 3: Western blot of brain tissue, BDNF; type: in vivo, Sprague-Dawley rats; settings: TWI vs AWI vs VI, 3 weeks post-injury
Experimental: as §4

traumatic brain injury = test: Example 2: dose response, sticker removal task (sensory neglect) after TBI, cyclodextrin vehicle; type: in vivo
Experimental: […] Pairs of circular adhesive papers (2 cm dia) were attached to the distal-radial areas of each forepaw and the rats' latencies to remove the stimuli were recorded. Each rat was given four trials (2-min ITI) per testing period with a maximum trial length of 2 minutes.
Surgery to induce a traumatic brain injury was performed as outlined in Example 1. Behavior testing using the Morris Water Maize was performed as outlined in Example 1 and the methods for the tactical adhesive removal were performed.

contusion injury = settings: following a contusion injury (Roof et al. 1994); cited from earlier work
[3] = tested on: medial frontal cortex (MFC) injury or sham; test: Example 4: somatosensory neglect of the forepaws; type: in vivo, Sprague-Dawley rats
Excerpt: as §1, §2
Sham (S) and lesion (L) animals were randomly assigned to one of three treatment groups: vehicle (VS, VL), acute withdrawal (AWS, AWL), and tapered withdrawal (TWS, TWL). […] Tapering was induced as halved dosages over the last two days of treatment. Dilutions for TW treatments were made with HBC stock. All injections were administered intraperitoneally at one hour post-injury, and subcutaneously at six hours post-injury and every 24 hours through the end of the treatment cycle. Five sets of 12 animals each were used, for a total n=10 for each experimental group over the entire experiment. Of these animals, all were used to acquire behavioral data, four samples were used for protein analysis, and six samples were used for histological analysis for each test condition.
Random order, blinded testing occurred under red light in a quiet environment at one and seven days post-withdrawal, one hour after locomoter activity testing. 1.3 cm diameter circular labels were placed on the left forepaw and the rat placed in the clear plexiglass testing box. The latency required for each rat to remove the sticker with its mouth was recorded, with maximum test duration of two minutes. Each animal was tested three times, with a rest period of two minutes between trials. The testing box was cleaned with 70% ethanol and dried between trials.
All results were expressed as the mean plus or minus the standard error of the mean. Statistical significance was set at p<0.05 for two-tailed tests, and data were analyzed using one-way analysis of variance (ANOVA) followed by LSD post hoc tests. F-values are presented as a preface to post-hoc analysis with all degrees of freedom for Western blotting at (5,18) and for behavior at (5,26).

CC(=O)[C@H]1CC[C@H]2[C@@H]3CCC4=CC(=O)CC[C@]4(C)[C@H]3CC[C@]12C [progesterone, pregn-4-ene-3,20-dione]
HSP70 levels (HSP70 [1]; all progesterone treatment vs vehicle-treated animals, three weeks post-injury): increased HSP70 compared to vehicle-treated animals
HSP70 levels (HSP70 [1]; sham animals (AWS, TWS, VS)): Sham animals did not display any differences between treatment groups
HSP70 levels (HSP70 [1]; tapered withdrawal, lesion (TWL) vs VL and AWL, three weeks post-injury): increased in TWL animals
HSP70 expression (HSP70 [2]): increased for TWI over AWI over VI at 3 weeks post-injury
permeability of the BBB (BBB): reduce the permeability of the BBB to macromolecules, but not ions
p53 levels (long-term marker of apoptosis) (p53): p53 levels indistinguishable from vehicle shams
BDNF expression (BDNF): increased for TWI over AWI over VI at 3 weeks post-injury
sticker removal task (sensory neglect), initial (traumatic brain injury; all doses (8, 16, 32 mg/kg), initially): initially produce behavioral recovery
sticker removal task (sensory neglect), later course (traumatic brain injury; high dose (32 mg/kg)): degraded to lesion control levels
sticker removal task (sensory neglect), later course (traumatic brain injury; moderate dose (16 mg/kg), day 21 post-injury): improved to sham levels by day 21 post-injury
post injury cerebral edema (contusion injury): reduces the severity of post injury cerebral edema
somatosensory neglect (latency to remove sticker) ([3]; 16 mg/kg in […] HBC, tapered withdrawal, lesion (TWL), one day and one week post-withdrawal): deficiencies were decreased compared to VL and AWL
somatosensory neglect (latency to remove sticker) ([3]; 16 mg/kg, acute withdrawal, lesion (AWL), one day and one week post-withdrawal): AWL and VL did not display differences
somatosensory neglect (latency to remove sticker) ([3]; 16 mg/kg, acute withdrawal, sham (AWS), one day post-withdrawal): elevated sensory deficiencies compared to the TWS and VS groups
somatosensory neglect (latency to remove sticker) ([3]; 16 mg/kg, acute withdrawal, sham (AWS), one week post-withdrawal): these differences were no longer evident
somatosensory neglect (latency to remove sticker) ([3]; tapered withdrawal, sham (TWS), one day and one week post-withdrawal): TWS and VS showed no differences
